The source of these data is patent US20080044479A1, “Antimicrobial sanitizing formulations with skin protection properties” (priority 2006, published 2008).

Experiment [1] relates to bacteria on skin surfaces. Briefly: Persistence of bacterial reduction on skin surfaces. The class given is in vivo. The text has this: It has been discovered that incorporation of at least one of the aforementioned antimicrobial agents in a formulation comprised of a Surfactant Phase, and a Wax Phase result in a product which is particularly effective in preventing cross-contamination of pathogenic microorganisms in the workplace. […] It is applicable to any area of intact skin, and will kill pathogenic bacteria on contact and remain effective for extended periods of time. The mechanism of microbicidal action of these antibacterial agents is thought to be due to the disruption of intermolecular actions of the microbes.

The test system of experiment [2] is gram-positive and gram-negative bacteria, plus fungi and yeasts. Particulars: see list in U.S. Pat. Nos. 6,187,327 and 6,517,854; cited from earlier work.

Structures are written as SMILES.

As to `Oc1cc(Cl)ccc1Oc1ccc(Cl)cc1Cl` [TRICLOSAN, 2,4,4′-trichloro-2′-hydroxydiphenyl ether], in experiment [1], the “period for which the incidence of bacteria on skin surfaces is significantly reduced” value lay within 3 to 4 h. Besides, the efficacy against microorganisms result in experiment [2] is reported as “demonstrated efficacy”.
